Results taken from patent US6056944A, “Pharmaceutical compositions for oral use including an NSAID and ceramides” (Synthelabo, priority 1995, dated 2000).

System: inflammation of the adult rat paw
Test: carragheenin-induced inflammation of the adult rat paw (edema volume)
Format: in vivo
Settings: gavage, 1 mg/kg, from 4 hours onwards, persisting up to 5 hours
Procedure: These tests consist in inducing inflammation of the adult rat paw and monitoring the development of the edema by measuring the volume of the paw.
The experimental conditions were as follows: rats, weighing from 200 to 220 g, were treated by gavage, 18 hours and 1 hour before administering the inflammatory agent, with the NSAI product to be studied, which was or was not combined with ceramides and which was administered in a volume of 0.5 ml. Control groups were given an 0.9% solution of sodium chloride.
The inflammatory reaction is induced by subcutaneously injecting 0.1 ml of a suspension of carragheenin in physiological saline. The volume of the paw is measured, using a mercury plethysmograph, before the inflammation starts, 30 minutes after it has started, and then every hour up to the 6th hour, and then finally 24 hours afterwards. The changes in volume are measured in cm on a graduated scale.
The tests were carried out with ketoprofen lysine, which was administered at 1 and 3 mg/kg and which was or was not combined with 0.5% of ceramides, and with ketoprofen, which was administered at 1 mg/kg and which was or was not combined with 1% of ceramides.

CC(C(=O)O)c1cccc(C(=O)c2ccccc2)c1 (stereo not shown) [ketoprofen]
anti-inflammatory effect as compared with the control: significant as compared with the control
